Patent US12681015B2, “Methods for predicting patient response to DMARDs” (Queen Mary University of London, priority 2019, dated 2026)
Entries after “also recorded” stand apart in the source; their conditions may differ.

System: SPM formation in human peripheral blood
Assay: Human whole blood incubation with MTX, plasma SPM by LC-MS/MS lipid mediator profiling
Type: cell-based
Conditions: MTX 100 nM, 37° C., 45 min
Procedure: Plasma was obtained by centrifugation and peripheral blood SPM concentrations were determined using LC-MS/MS based lipid mediator profiling. (A) OPLS-DA analysis of plasma SPM concentrations. Colored spherical areas display 95% confidence region of respective incubations. […] Results for A, B are representative of n=6 donors from three distinct experiments. […] Blood was then collected after 1 hour and SPM concentrations were determined using LC-MS/MS based lipid mediator profiling (D) oPLS-DA analysis of plasma SPM concentrations. Colored areas display 95% confidence region of respective incubations. […] Results are representative of n=4 mice per group and experiments were conducted on two distinct occasions.
Incubations were quenched and SPM were identified and quantified using LC-MS/MS-based lipid mediator profiling. Results are mean±SEM. n=6 volunteers per group.
Plasma was obtained from peripheral blood of healthy volunteers, patients and mouse following centrifugation at 1500×g for 10 min at room temperature. Paws were collected and immediately transferred to liquid nitrogen prior to homogenization in 1 ml ice cold MeOH and homogenized using a glass dounce. All samples for LC-MS/MS-based profiling were extracted using solid-phase extraction columns as in Walker, M. E., Souza, P. R., Colas, R. A. & Dalli, J. “13-Series resolvins mediate the leukocyte-platelet actions of atorvastatin and pravastatin in inflammatory arthritis.” FASEB J 31, 3636-3648 (2017), the contents of which are incorporated herein by reference. Prior to sample extraction, deuterated internal standards, representing each region in the chromatographic analysis (500 pg each) were added to facilitate quantification. Samples were kept at −20° C. for a minimum of 45 min to allow protein precipitation. Supernatants were subjected to solid phase extraction, methyl formate fraction collected, brought to dryness and suspended in phase (methanol/water, 1:1, vol/vol) for injection on a Shimadzu LC-20AD HPLC and a Shimadzu SIL-20AC autoinjector, paired with a QTrap 5500 or QTrap 6500 plus (Sciex). An Agilent Poroshell 120 EC-C18 column (100 mm×4.6 mm×2.7 μm) was kept at 50° C. and mediators eluted using a mobile phase consisting of methanol/water/acetic acid of 20:80:0.01 (vol/vol/vol) that was ramped to 50:50:0.01 (vol/vol/vol) over 0.5 min and then to 80:20:0.01 (vol/vol/vol) from 2 min to 11 min, maintained till 14.5 min and then rapidly ramped to 98:2:0.01 (vol/vol/vol) for the next 0.1 min. This was subsequently maintained at 98:2:0.01 (vol/vol/vol) for 5.4 min, and the flow rate was maintained at 0.5 ml/min. QTrap 5500 or QTrap 6500 plus were operated using a multiple reaction monitoring method as in Walker, M. E., Souza, P. R., Colas, R. A. & Dalli, J. “13-Series resolvins mediate the leukocyte-platelet actions of atorvastatin and pravastatin in inflammatory arthritis.” FASEB J 31, 3636-3648 (2017), the contents of which are incorporated herein by reference. Each lipid mediator was identified using established criteria including matching retention time to synthetic or authentic standards and at least 6 diagnostic ions (Walker, M. E., Souza, P. R., Colas, R. A. & Dalli, J. “13-Series resolvins mediate the leukocyte-platelet actions of atorvastatin and pravastatin in inflammatory arthritis.” FASEB J 31, 3636-3648 (2017), the contents of which are incorporated herein by reference).

CN(Cc1cnc2nc(N)nc(N)c2n1)c1ccc(C(=O)N[C@@H](CCC(=O)O)C(=O)O)cc1 [MTX, Methotrexate]
mediators from the DHA, n-3 DPA and EPA bioactive metabolomes including PDX, RvD1 and RvE3: upregulation
plasma SPM concentrations: upregulates; also recorded: increase
plasma 4S,14S-diHDHA concentration, Mean ± SEM (n=6): 2.82 ± 0.56
plasma 5S,15S-diHETE concentration, Mean ± SEM (n=6): 5.32 ± 0.43
plasma 7S,14S-diHDHA concentration, Mean ± SEM (n=6): 0.00 ± 0.00
plasma 10S,17S-diHDPA concentration, Mean ± SEM (n=6): 0.55 ± 0.16
plasma 13,14-dehydro-15-oxo-LXA4 concentration, Mean ± SEM (n=6): 82.74 ± 32.78
plasma 14-oxo-MaR1 concentration, Mean ± SEM (n=6): 0.00 ± 0.00
plasma 14S-diHDPA concentration, Mean ± SEM (n=6): 2.04 ± 0.41
plasma 15-oxo-LXA4 concentration, Mean ± SEM (n=6): 3.78 ± 0.56
plasma 15R-LXB4 concentration, Mean ± SEM (n=6): 2.13 ± 0.45
plasma 17R-PD1 concentration, Mean ± SEM (n=6): 0.96 ± 0.39
plasma 17R-RvD1 concentration, Mean ± SEM (n=6): 7.50 ± 1.97
plasma 17R-RvD3 concentration, Mean ± SEM (n=6): 2.68 ± 0.67
plasma 22-OH-MaR1 concentration, Mean ± SEM (n=6): 18.44 ± 4.31
plasma 22-OH-PD1 concentration, Mean ± SEM (n=6): 7.86 ± 2.61
plasma LXA4 concentration, Mean ± SEM (n=6): 0.55 ± 0.10
plasma LXB4 concentration, Mean ± SEM (n=6): 13.42 ± 2.93
plasma MaR1 concentration, Mean ± SEM (n=6): 24.53 ± 3.12
plasma MaR1n-3 DPA concentration, Mean ± SEM (n=6): 1.09 ± 0.29
plasma MaR2 concentration, Mean ± SEM (n=6): 0.00 ± 0.00
plasma MaR2n-3 DPA concentration, Mean ± SEM (n=6): 7.97 ± 0.87
plasma PD1 concentration, Mean ± SEM (n=6): 2.11 ± 0.24
plasma PD1n-3 DPA concentration, Mean ± SEM (n=6): 0.34 ± 0.10
plasma PD2n-3 DPA concentration, Mean ± SEM (n=6): 3.01 ± 1.23
plasma PDx concentration, Mean ± SEM (n=6): 1.55 ± 0.22
plasma RvD1 concentration, Mean ± SEM (n=6): 9.09 ± 1.13
plasma RvD1n-3 DPA concentration, Mean ± SEM (n=6): 5.43 ± 1.10
plasma RvD2 concentration, Mean ± SEM (n=6): 0.32 ± 0.13
plasma RvD2n-3 DPA concentration, Mean ± SEM (n=6): 3.58 ± 1.16
plasma RvD3 concentration, Mean ± SEM (n=6): 3.57 ± 1.38
plasma RvD4 concentration, Mean ± SEM (n=6): 1.44 ± 0.59
plasma RvD5 concentration, Mean ± SEM (n=6): 1.05 ± 0.22
plasma RvD5n-3 DPA concentration, Mean ± SEM (n=6): 1.26 ± 0.24
plasma RvD6 concentration, Mean ± SEM (n=6): 1.07 ± 0.21
plasma RvE1 concentration, Mean ± SEM (n=6): 1.15 ± 0.32
plasma RvE2 concentration, Mean ± SEM (n=6): 3.82 ± 1.15
plasma RvE3 concentration, Mean ± SEM (n=6): 4.49 ± 0.23
plasma RvT1 concentration, Mean ± SEM (n=6): 9.18 ± 2.50
plasma RvT2 concentration, Mean ± SEM (n=6): 1.63 ± 0.35
plasma RvT3 concentration, Mean ± SEM (n=6): 0.60 ± 0.24
plasma RvT4 concentration, Mean ± SEM (n=6): 0.36 ± 0.15
